Results reported in US20090215835A1, “TREATMENT OF CANCER WITH SORAFENIB” (priority 2005, published 2009).

What was measured:
Type in all cases: in vivo, human
[1] = Pharmacokinetics of sorafenib in plasma of HCC patients; settings: Child-Pugh A versus B HCC patients, 400 mg bid oral
Experimental: (§1) Patients with inoperable hepatocellular carcinoma (HCC), no prior systemic treatment, and Child-Pugh (CP) score of A or B, received oral sorafenib at 400 mg bid continuously in 4-week cycles. Tumor response was assessed every two cycles using modified WHO criteria and independent radiologic review. Plasma samples were collected to evaluate the pharmacokinetics (PK) of sorafenib. Biomarker assays were performed in selected patients. These included phospho-ERK levels via immunohistochemistry in pretreatment biopsies, plasma HER-2/neu analysis, plasma protein proteomics via mass spectrometry, and blood cell RNA expression patterns via Affymetrix GeneChip microarray analysis.

[2] = Drug-related toxicities in HCC patients on oral sorafenib; settings: 400 mg bid oral
Experimental: as §1

[3] = system: inoperable hepatocellular carcinoma (HCC); assay: Tumor response, TTP and survival in patients with inoperable hepatocellular carcinoma on oral sorafenib; settings: 400 mg bid oral
Experimental: as §1

[4] = 137 HCC patients, independent radiologic review

N-[4-chloro-3-(trifluoromethyl)phenyl]-N′-{4-[2-carbamoyl-1-oxo-(4-pyridyloxy)]phenyl}urea [sorafenib]
pharmacokinetic differences between CP A and B patients [1]: no pharmacokinetic differences
grade ¾ drug-related toxicity leading to dose delay and/or modification: diarrhea [2]: 4.4%
grade ¾ drug-related toxicity leading to dose delay and/or modification: fatigue [2]: 5.8%
grade ¾ drug-related toxicity leading to dose delay and/or modification: hand-foot skin reaction [2]: 5.1%
patients who achieved a partial response ([3]; 137 HCC patients, continuous 4-week cycles, independent radiologic review, modified WHO criteria): 2.2%
patients who achieved a minor response [3, 4]: 5.8%
patients with stable disease for at least 16 weeks as best response [3, 4]: 33.6%
median overall survival ([3]; HCC patients): 9.2 months
median TTP ([3]; investigator-assessed, HCC patients): 4.2 months
